In ChEMBL document CHEMBL1782038, “Heterocyclic replacement of the central phenyl core of diamine-based histamine H3 receptor antagonists” (Eur J Med Chem, 2009):

Tests used:
Rattus norvegicus = species on record: Rattus norvegicus; conditions: in vivo, po, 10 mg/kg
in vivo [1] = conditions: Sprague-Dawley, rat, iv, 1 mg/kg
in vivo [2] = conditions: Sprague-Dawley, rat, iv, 1 mg/kg; remark: listed apart in the source
in vivo [3] = conditions: Sprague-Dawley, rat, po, 10 mg/kg
in vivo [4] = conditions: Sprague-Dawley, rat, po, 10 mg/kg; remark: listed apart in the source
in vivo [5] = conditions: Sprague-Dawley, rat, po, 10 mg/kg; remark: listed apart in the source
in vivo [6] = conditions: Sprague-Dawley, rat, po, 10 mg/kg; remark: listed apart in the source
in vivo [7] = conditions: Sprague-Dawley, rat, iv, 1 mg/kg; remark: listed apart in the source

CC(C)N1CCN(C(=O)c2ccc(CN3CCCCC3)cc2)CC1 gave a Vz (Rattus norvegicus) of 41.1 L, a half-life (in vivo [1]) of 13.8 h and a Vd (in vivo [2]) of 10.6 L. The bioavailability (in vivo [3]) was 54%, the CL/F (in vivo [4]) was 18.3 mL/min and the half-life (in vivo [5]) was 33.6 h. The Tmax (in vivo [6]) was 1.7 h and the clearance (in vivo [7]) was 9.67 mL/min.
